Experimental data reported in ChEMBL document CHEMBL4118249, “Discovery and Identification of Small Molecules as Methuosis Inducers with in Vivo Antitumor Activities” (J Med Chem, 2018).

How the values were obtained:
MDA-MB-231 [1] = test: Induction of methuosis in human MDA-MB-231 cells assessed as increase in vacuole formation at 10 uM after 24 hrs by phase contrast microscopic analysis relative to control; format: functional
MDA-MB-231 [2] = test: Induction of methuosis in human MDA-MB-231 cells assessed as increase in vacuole formation at 1 uM after 24 hrs by phase contrast microscopic analysis relative to control; format: functional

SMILES	Activity (MDA-MB-231 [1]) [%]	Activity (MDA-MB-231 [2]) [%]
O=C(Nc1cccc(C(F)(F)F)c1)c1cccc(Nc2cc(-c3cccnc3)nc3[nH]ccc23)c1	80.23	3.78
Cc1ccc(NC(=O)c2cccc(C(F)(F)F)c2)cc1Nc1cc(-c2ccncc2)nc2[nH]ccc12	96.34	1.46
COc1cccc(NC(=O)c2ccc(C)c(Nc3cc(-c4cccnc4)nc4[nH]ccc34)c2)c1	100	76.86
Cc1cccc(NC(=O)c2ccc(C)c(Nc3cc(-c4cccnc4)nc4[nH]ccc34)c2)c1	97.68	11.24
Cc1ccc(NC(=S)Nc2cccc(C(F)(F)F)c2)cc1Nc1cc(-c2cccnc2)nc2[nH]ccc12	87.3	1.26
Cc1ccc(C(=O)N2CCOCC2)cc1Nc1cc(-c2cccnc2)nc2[nH]ccc12	0	0
Cc1ccc(C(=O)Nc2cccc(OC(F)(F)F)c2)cc1Nc1cc(-c2cccnc2)nc2[nH]ccc12	99.66	38.57
Cc1ccc(C(=O)Nc2cc(CN3CCN(C)CC3)cc(C(F)(F)F)c2)cc1Nc1cc(-c2cccnc2)nc2[nH]ccc12	0	0.62
Cc1ccc(C(=O)Nc2cccc(C(F)(F)F)c2)cc1Nc1cc(-c2cccnc2)nc2[nH]ccc12	99.42	70.29
Cc1cc(NC(=O)c2ccc(C)c(Nc3cc(-c4cccnc4)nc4[nH]ccc34)c2)n(C)n1	95.24	2.48
Cc1ccc(C(=O)Nc2cccc(C(F)(F)F)c2)cc1Nc1cc(-c2ccncc2)nc2[nH]ccc12	1.94	0
Cc1ccc(C(=O)Nc2cccc(C(F)(F)F)c2)cc1Nc1cc(-c2cccnc2)nc2c1ccn2C	70.96	3.63
Cc1ccc(NC(=O)c2cccc(C(F)(F)F)c2)cc1Nc1cc(-c2ccoc2)nc2[nH]ccc12	0	0.24
O=C(Nc1cccc(Nc2cc(-c3cccnc3)nc3[nH]ccc23)c1)c1cccc(C(F)(F)F)c1	98.98	96.61
Cc1ccc(NC(=O)c2cccc(C(F)(F)F)c2)cc1Nc1cc(-c2cccc(N)c2)nc2[nH]ccc12	1.63	0.27
Cc1ccc(NC(=O)c2cccc(C(F)(F)F)c2)cc1Nc1cc(-c2ccsc2)nc2[nH]ccc12	0.21	0
Cc1ccc(C(=O)Nc2cccc(Cl)c2)cc1Nc1cc(-c2cccnc2)nc2[nH]ccc12	96.75	19.49
Cc1ccc(NC(=O)c2cccc(C(F)(F)F)c2)cc1Nc1cc(-c2cccnc2)nc2c1ccn2C	96.27	16.08
Cc1ccc(C(=O)Nc2cc(C(F)(F)F)cc(C(F)(F)F)c2)cc1Nc1cc(-c2cccnc2)nc2[nH]ccc12	0	0
Cc1ccc(NC(=O)c2cccc(C(F)(F)F)c2)cc1Nc1cc(-c2ccccc2)nc2[nH]ccc12	0	0
Cc1ccc(NC(=O)c2cccc(C(F)(F)F)c2)cc1Nc1cc(-c2cccc(Cl)c2)nc2[nH]ccc12	0.33	0.03
